One experiment has as its target TAF1-BD2 (Homo sapiens, UniProt P21675). The experiment in a line: TAF1-BD2 TR-FRET Binding Assay. To be noted: read-out: TAF1-BD2 HTRF IC50. A general note: Time-resolved FRET reads energy transfer from a long-lived donor to a nearby acceptor.
The target of a further experiment is TAF1-BD1 (Homo sapiens, UniProt P21675). Description: TAF1-BD1 TR-FRET Binding Assay. Conditions: read-out: TAF1-BD1 HTRF IC50.

As usually defined, the IC50 is the point on the concentration scale where inhibition reaches its midpoint.

On to `CCOC(=O)c1c(C)[nH]c2c(=O)n(C)cc(C#CC(O)(c3ccccc3)C(F)(F)F)c12` (single isomer, unassigned) [Example 91b, ethyl 2,6-dimethyl-7-oxo-4-(4,4,4-trifluoro-3-hydroxy-3-phenyl-but-1-ynyl)-1H-pyrrolo[2,3-c]pyridine-3-carboxylate], for which the IC50 on TAF1-BD2 was 42.2 nM; at TAF1-BD1, 184 nM.
For the compound `CC(=O)NCCCOC(=O)c1c(C)[nH]c2c(=O)n(C)cc(C#CC(O)(c3ccccc3)C(F)(F)F)c12` (stereo not shown) [Example 135, 3-acetamidopropyl 2,6-dimethyl-7-oxo-4-(4,4,4-trifluoro-3-hydroxy-3-phenyl-but-1-ynyl)-1H-pyrrolo[2,3-c]pyridine-3-carboxylate], the IC50 on TAF1-BD2 came out at 40.8 nM; at TAF1-BD1 it was 295 nM.
The corresponding values for “3-(hydroxymethyl)-4-(3-hydroxy-3-methyl-but-1-ynyl)-2,6-dimethyl-1H-pyrrolo[2,3-c]pyridin-7-one [Example 201]” are 2250 nM and 6050 nM.
As for `Cc1[nH]c2c(=O)n(C)cc(C#CC(C)(C)O)c2c1C(=O)OCC(C)(C)C` [Example 150, 2,2-dimethylpropyl 4-(3-hydroxy-3-methyl-but-1-ynyl)-2,6-dimethyl-7-oxo-1H-pyrrolo[2,3-c]pyridine-3-carboxylate], the results for the half-maximal inhibitory concentration (IC50) at TAF1-BD2 and at TAF1-BD1 were 30.4 nM and 93.6 nM, respectively.
`Cc1[nH]c2c(=O)n(C)cc(C#CC(O)(c3ccccc3)C(F)(F)F)c2c1-c1nnc(CCN(C)C)o1` (stereo not shown) [Example 178, 3-[5-[2-(dimethylamino)ethyl]-1,3,4-oxadiazol-2-yl]-2,6-dimethyl-4-(4,4,4-trifluoro-3-hydroxy-3-phenyl-but-1-ynyl)-1H-pyrrolo[2,3-c]pyridin-7-one]: the IC50 at TAF1-BD2 amounted to 88.1 nM; on TAF1-BD1, 725 nM.
Turning to `C=CCCn1cc(C#CC(C)(C)C(N)=O)c2c(C(=O)OCC)c(C)[nH]c2c1=O` [Example 48, ethyl 4-(4-amino-3,3-dimethyl-4-oxo-but-1-ynyl)-6-but-3-enyl-2-methyl-7-oxo-1H-pyrrolo[2,3-c]pyridine-3-carboxylate], the results for the IC50 at TAF1-BD2 and at TAF1-BD1 were 312 nM and 1280 nM, respectively.
As to `Cc1[nH]c2c(=O)n(C)cc(C#CC(O)(c3ccccc3)C(F)(F)F)c2c1-c1nnco1` (stereo not shown) [Example 183, 2,6-dimethyl-3-(1,3,4-oxadiazol-2-yl)-4-(4,4,4-trifluoro-3-hydroxy-3-phenyl-but-1-ynyl)-1H-pyrrolo[2,3-c]pyridin-7-one], the IC50 is 50.2 nM on TAF1-BD2 and 598 nM on TAF1-BD1.
On to `CCOC(=O)c1c(C)[nH]c2c(=O)n(C)cc(C#CC(O)(c3cccc(-c4ccccc4OC)c3)C(F)(F)F)c12` (stereo not shown) [Example 101, ethyl 2,6-dimethyl-7-oxo-4-[4,4,4-trifluoro-3-hydroxy-3-[3-(2-methoxyphenyl)phenyl]but-1-ynyl]-1H-pyrrolo[2,3-c]pyridine-3-carboxylate], for which the values for the IC50 on TAF1-BD2 and at TAF1-BD1 were 608 nM and 4330 nM, respectively.
Turning to `CCOC(=O)c1c(C)[nH]c2c(=O)n(C)cc(C#CC(C)(C)CO)c12` [Example 15, ethyl 4-(4-hydroxy-3,3-dimethyl-but-1-ynyl)-2,6-dimethyl-7-oxo-1H-pyrrolo[2,3-c]pyridine-3-carboxylate], the results for the IC50 at TAF1-BD2 and on TAF1-BD1 were 189 nM and 343 nM, respectively.
In the same order, the values of `Cc1[nH]c2c(=O)n(C)cc(C#CC(C)(C)O)c2c1C(=O)OCc1ccncc1` [Example 112, 4-pyridylmethyl 4-(3-hydroxy-3-methyl-but-1-ynyl)-2,6-dimethyl-7-oxo-1H-pyrrolo[2,3-c]pyridine-3-carboxylate] are 610 nM and 4620 nM.
`Cc1[nH]c2c(=O)n(C)cc(C#CC(C)(O)C3CC3)c2c1C(=O)OCC(C)C` (stereo not shown) [Example 126, isobutyl 4-(3-cyclopropyl-3-hydroxy-but-1-ynyl)-2,6-dimethyl-7-oxo-1H-pyrrolo[2,3-c]pyridine-3-carboxylate]: the values for the IC50 at TAF1-BD2 and on TAF1-BD1 were 40.1 nM and 123 nM, respectively.
For the compound `CC(=O)NCc1nnc(-c2c(C)[nH]c3c(=O)n(C)cc(C#CC(O)(c4ccccc4)C(F)(F)F)c23)o1` (stereo not shown) [Example 173, N-[[5-[2,6-dimethyl-7-oxo-4-(4,4,4-trifluoro-3-hydroxy-3-phenyl-but-1-ynyl)-1H-pyrrolo[2,3-c]pyridin-3-yl]-1,3,4-oxadiazol-2-yl]methyl]acetamide], the IC50 at TAF1-BD2 stood at 117 nM; on TAF1-BD1, 490 nM.
In the case of `CCOC(=O)c1c(C)[nH]c2c(=O)n(CC)cc(C#CC(C)(C)O)c12` [Example 50, ethyl 6-ethyl-4-(3-hydroxy-3-methyl-but-1-ynyl)-2-methyl-7-oxo-1H-pyrrolo[2,3-c]pyridine-3-carboxylate], the values for the IC50 on TAF1-BD2 and at TAF1-BD1 were 450 nM and 9870 nM, respectively.
As for `CCOC(=O)c1c(C)[nH]c2c(=O)n(C)cc(C#C[C@](C)(O)c3ncccn3)c12` [Example 5, ethyl 4-[(3S)-3-hydroxy-3-pyrimidin-2-yl-but-1-ynyl]-2,6-dimethyl-7-oxo-1H-pyrrolo[2,3-c]pyridine-3-carboxylate], the IC50 amounted to 1630 nM on TAF1-BD2 and 8350 nM on TAF1-BD1.
Consider `CCOC(=O)c1c(C)[nH]c2c(=O)n(C)cc(C#C[C@@H]3CCCC[C@H]3O)c12` (stereo in doubt) [Example 84, ethyl 4-[2-(2-hydroxycyclohexyl)ethynyl]-2,6-dimethyl-7-oxo-1H-pyrrolo[2,3-c]pyridine-3-carboxylate], for which the IC50 was 187 nM at TAF1-BD2 and 2000 nM on TAF1-BD1.
With `CCOC(=O)c1c(C)[nH]c2c(=O)n(C)cc(C#Cc3ccccc3OC(F)(F)F)c12` [Example 57, ethyl 2,6-dimethyl-7-oxo-4-[2-[2-(trifluoromethoxy)phenyl]ethynyl]-1H-pyrrolo[2,3-c]pyridine-3-carboxylate], the half-inhibitory concentration (IC50) was 59.6 nM on TAF1-BD2 and more than 20000 nM on TAF1-BD1.
As to `CCOC(=O)c1c(C)[nH]c2c(=O)n(C)cc(C#CC(C)(C)O)c12` [Example 78, ethyl 4-(3-hydroxy-3-methyl-but-1-ynyl)-2,6-dimethyl-7-oxo-1H-pyrrolo[2,3-c]pyridine-3-carboxylate], the IC50 amounted to 38.5 nM on TAF1-BD2 and 616 nM at TAF1-BD1.
With `Cc1[nH]c2c(=O)n(C)cc(C#CC(C)(C)O)c2c1C(=O)OCC(C)C` [Example 132, isobutyl 4-(3-hydroxy-3-methyl-but-1-ynyl)-2,6-dimethyl-7-oxo-1H-pyrrolo[2,3-c]pyridine-3-carboxylate], the IC50 on TAF1-BD2 came to 29.9 nM; at TAF1-BD1, 173 nM.
For the compound `Cc1[nH]c2c(=O)n(C)cc(C#CC(C)(C)O)c2c1C1=NC(C(C)C)CO1` (stereo not shown) [Example 202, 4-(3-hydroxy-3-methyl-but-1-ynyl)-3-(4-isopropyl-4,5-dihydrooxazol-2-yl)-2,6-dimethyl-1H-pyrrolo[2,3-c]pyridin-7-one], the IC50 on TAF1-BD2 was 176 nM; on TAF1-BD1, 1230 nM.
In the same order, the values of `CCOC(=O)c1c(C)[nH]c2c(=O)n(C)cc(C#CC(O)(c3ccccc3)C(F)F)c12` (single isomer, unassigned) [Example 93b, ethyl 4-(4,4-difluoro-3-hydroxy-3-phenyl-but-1-ynyl)-2,6-dimethyl-7-oxo-1H-pyrrolo[2,3-c]pyridine-3-carboxylate] are 21.4 nM and 176 nM.
With `CCOC(=O)c1c(C)[nH]c2c(=O)n(C)cc(C#CC(O)(c3cccnc3)C(F)(F)F)c12` (stereo not shown) [Example 1, ethyl 2,6-dimethyl-7-oxo-4-(4,4,4-trifluoro-3-hydroxy-3-(3-pyridyl)but-1-ynyl)-1H-pyrrolo[2,3-c]pyridine-3-carboxylate], the IC50 is 80.4 nM at TAF1-BD2 and 312 nM on TAF1-BD1.
As to `Cc1[nH]c2c(=O)n(C)cc(C#CC(C)(C)O)c2c1C(=O)OCc1ccccn1` [Example 115, 2-pyridylmethyl 4-(3-hydroxy-3-methyl-but-1-ynyl)-2,6-dimethyl-7-oxo-1H-pyrrolo[2,3-c]pyridine-3-carboxylate], the IC50 worked out at 34.1 nM on TAF1-BD2 and 282 nM at TAF1-BD1.
Turning to `CCCCC(C)(C)OC(=O)c1c(C)[nH]c2c(=O)n(C)cc(C#CC(C)(C)O)c12` [Example 146, 1,1-dimethylpentyl 4-(3-hydroxy-3-methyl-but-1-ynyl)-2,6-dimethyl-7-oxo-1H-pyrrolo[2,3-c]pyridine-3-carboxylate], the 50% inhibitory concentration (IC50) on TAF1-BD2 was found to be 43.2 nM; on TAF1-BD1 it was 288 nM.
Regarding `CCOC(=O)c1c(C)[nH]c2c(=O)n(C)cc(C#CCCO)c12` [Example 82, ethyl 4-(4-hydroxybut-1-ynyl)-2,6-dimethyl-7-oxo-1H-pyrrolo[2,3-c]pyridine-3-carboxylate], the IC50 at TAF1-BD2 stood at 337 nM; on TAF1-BD1, 1750 nM.
In the same order, the values of `Cc1[nH]c2c(=O)n(C)cc(C#CC(C)(C)O)c2c1C(=O)O` [Example 200, 4-(3-hydroxy-3-methyl-but-1-ynyl)-2,6-dimethyl-7-oxo-1H-pyrrolo[2,3-c]pyridine-3-carboxylic acid] are 13700 nM and 20000 nM.
Turning to `C=CCCn1cc(C#CC(C)(O)CC#N)c2c(C(=O)OCC)c(C)[nH]c2c1=O` (stereo not shown) [Example 72, ethyl 6-but-3-enyl-4-(4-cyano-3-hydroxy-3-methyl-but-1-ynyl)-2-methyl-7-oxo-1H-pyrrolo[2,3-c]pyridine-3-carboxylate], the concentration for half-maximal inhibition (IC50) on TAF1-BD2 is 181 nM; at TAF1-BD1 it was more than 20000 nM.
With `CCOC(=O)c1c(C)[nH]c2c(=O)n(C)cc(C#CC(C)(O)c3cccc(C#N)c3)c12` (stereo not shown) [Example 19, ethyl 4-[3-(3-cyanophenyl)-3-hydroxy-but-1-ynyl]-2,6-dimethyl-7-oxo-1H-pyrrolo[2,3-c]pyridine-3-carboxylate], the IC50 is 30.3 nM at TAF1-BD2 and 146 nM on TAF1-BD1.
Turning to `CCOC(=O)c1c(C)[nH]c2c(=O)n(C)cc(C#Cc3ccccc3)c12` [Example 55, ethyl 2,6-dimethyl-7-oxo-4-(2-phenylethynyl)-1H-pyrrolo[2,3-c]pyridine-3-carboxylate], the IC50 at TAF1-BD2 was 74 nM; at TAF1-BD1, 457 nM.
As for `Cc1[nH]c2c(=O)n(C)cc(C#CC(C)(O)C3CC3)c2c1C(=O)OCc1cccc2cccnc12` (stereo not shown) [Example 105, 8-quinolylmethyl 4-(3-cyclopropyl-3-hydroxy-but-1-ynyl)-2,6-dimethyl-7-oxo-1H-pyrrolo[2,3-c]pyridine-3-carboxylate], the IC50 was 34.6 nM on TAF1-BD2 and 93.9 nM on TAF1-BD1.
